Several values for one entry are separate records, joined by “and”; a condition that tells them apart may be missing. Equal values may be shown once.
Tested on: rat primary hepatocytes
Test: Metabolic disposition of [^14C]-Compound 1 and [^14C]-2′-C-methyl guanosine in rat primary hepatocytes (incubation medium, cellular extracts, nucleotide levels)
Assay type: in vitro ADME, Sprague Dawley rat
Conditions: for Compound 7 AUC0-24h: rat hepatocytes (n=1); for AUC (area under the concentration-time curve) of Compound 7 levels: 0-24 h
Summary of the method: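 Rat, monkey or human primary hepatocytes on collagen I plates (1.6 million cells/mL) were incubated at 37° C with 1 or 10 μM C-8 [^14C]-labelled compound or 2′-C-methyl guanosine for 1, 4, 8 and 24 hours. Medium and 70% methanol cell extracts were analysed by LSC and radio-HPLC. Nucleotides were identified by alkaline phosphatase treatment and retention-time matching to standards.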

[1] = rat hepatocytes (Rs458), 1 μM [^14C]-Compound 1, 1 h
[2] = rat hepatocytes (Rs458), 1 μM [^14C]-Compound 1, 8 h
[3] = rat hepatocytes (Rs458), 1 μM [^14C]-Compound 1, 24 h
[4] = rat hepatocytes Rs448, 10 μM [^14C]-2′-C-methyl guanosine, 1 h
[5] = rat hepatocytes Rs448, 10 μM [^14C]-2′-C-methyl guanosine, 4 h
[6] = rat hepatocytes Rs448, 10 μM [^14C]-2′-C-methyl guanosine, 8 h
[7] = rat hepatocytes Rs448, 10 μM [^14C]-2′-C-methyl guanosine, 24 h
[8] = rat hepatocytes Rs458, 1 μM [^14C]-2′-C-methyl guanosine, 1 h
[9] = rat hepatocytes Rs458, 1 μM [^14C]-2′-C-methyl guanosine, 8 h
[10] = rat hepatocytes Rs458, 1 μM [^14C]-2′-C-methyl guanosine, 24 h
[11] = rat hepatocytes Rs458, 10 μM [^14C]-2′-C-methyl guanosine, 1 h
[12] = rat hepatocytes Rs458, 10 μM [^14C]-2′-C-methyl guanosine, 4 h
[13] = rat hepatocytes Rs458, 10 μM [^14C]-2′-C-methyl guanosine, 8 h
[14] = rat hepatocytes Rs458, 10 μM [^14C]-2′-C-methyl guanosine, 24 h

SMILES: C[C@@]1(O)[C@H](O)[C@@H](COP(=O)(O)OP(=O)(O)OP(=O)(O)O)O[C@H]1n1cnc2c(=O)[nH]c(N)nc21 [Compound 7, [(2R)-2-methyl-β-D-ribofuranosyl]guanine 5′-triphosphate]
- metabolites observed in cellular extracts (% of total radioactivity) (rat hepatocytes (Rs448, Rs458), 10 μM [^14C]-Compound 1, 1 h, listed as Compd 7): 59.0% and 50.8%
- metabolites observed in cellular extracts (% of total radioactivity) (rat hepatocytes (Rs448, Rs458), 10 μM [^14C]-Compound 1, 4 h, listed as Compd 7): 70.9% and 69.1%
- metabolites observed in cellular extracts (% of total radioactivity) (rat hepatocytes (Rs448, Rs458), 10 μM [^14C]-Compound 1, 8 h, listed as Compd 7): 73.0% and 72.5%
- metabolites observed in cellular extracts (% of total radioactivity) (rat hepatocytes (Rs448, Rs458), 10 μM [^14C]-Compound 1, 24 h, listed as Compd 7): 66.2% and 54.5%
- 2′-C-methyl guanosine nucleotide levels in cellular extracts [1]: 80.0 pmol/million cells
- metabolites observed in cellular extracts (% of total radioactivity) [1]: 50.5%
- 2′-C-methyl guanosine nucleotide levels in cellular extracts [2]: 238 pmol/million cells
- metabolites observed in cellular extracts (% of total radioactivity) [2]: 77.6%
- 2′-C-methyl guanosine nucleotide levels in cellular extracts [3]: 103 pmol/million cells
- metabolites observed in cellular extracts (% of total radioactivity) [3]: 62.1%
- Compound 7 AUC0-24h (1 μM [^14C]-2′-C-methyl guanosine): 458 pmol*h/million cells
- Compound 7 AUC0-24h (1 μM [^14C]-Compound 1): 3,881 pmol*h/million cells
- 2′-C-methyl guanosine nucleotide levels in cellular extracts (rat hepatocytes Rs448, 10 μM [^14C]-2′-C-methyl guanosine, 0 h): 0 pmol/million cells
- AUC (area under the concentration-time curve) of Compound 7 levels (rat hepatocytes Rs448, 10 μM [^14C]-2′-C-methyl guanosine): 5906 pmol * hr/million cells
- 2′-C-methyl guanosine nucleotide levels in cellular extracts [4]: 28.0 pmol/million cells
- Major metabolites observed in cellular extracts (% of total radioactivity) [4]: 5.21 % of total radioactivity
- 2′-C-methyl guanosine nucleotide levels in cellular extracts [5]: 141 pmol/million cells
- Major metabolites observed in cellular extracts (% of total radioactivity) [5]: 17.9 % of total radioactivity
- 2′-C-methyl guanosine nucleotide levels in cellular extracts [6]: 258 pmol/million cells and 287 pmol/million cells
- Major metabolites observed in cellular extracts (% of total radioactivity) [6]: 24.1 % of total radioactivity
- 2′-C-methyl guanosine nucleotide levels in cellular extracts [7]: 347 pmol/million cells
- Major metabolites observed in cellular extracts (% of total radioactivity) [7]: 35.6 % of total radioactivity
- 2′-C-methyl guanosine nucleotide levels in cellular extracts (rat hepatocytes Rs448, 10 μM [^14C]-Compound 1, 0 h): 0 pmol/million cells
- AUC (area under the concentration-time curve) of Compound 7 levels (rat hepatocytes Rs448, 10 μM [^14C]-Compound 1): 31568 pmol * hr/million cells
- 2′-C-methyl guanosine nucleotide levels in cellular extracts (rat hepatocytes Rs448, 10 μM [^14C]-Compound 1, 1 h): 580 pmol/million cells
- 2′-C-methyl guanosine nucleotide levels in cellular extracts (rat hepatocytes Rs448, 10 μM [^14C]-Compound 1, 4 h): 1429 pmol/million cells
- 2′-C-methyl guanosine nucleotide levels in cellular extracts (rat hepatocytes Rs448, 10 μM [^14C]-Compound 1, 8 h): 1791 pmol/million cells
- 2′-C-methyl guanosine nucleotide levels in cellular extracts (rat hepatocytes Rs448, 10 μM [^14C]-Compound 1, 24 h): 937 pmol/million cells
- AUC (area under the concentration-time curve) of Compound 7 levels (rat hepatocytes Rs458, 1 μM [^14C]-2′-C-methyl guanosine): 458 pmol * hr/million cells
- 2′-C-methyl guanosine nucleotide levels in cellular extracts [8]: 2.60 pmol/million cells
- Major metabolites observed in cellular extracts (% of total radioactivity) [8]: 4.56 % of total radioactivity
- 2′-C-methyl guanosine nucleotide levels in cellular extracts [9]: 20.1 pmol/million cells
- Major metabolites observed in cellular extracts (% of total radioactivity) [9]: 26.1 % of total radioactivity
- 2′-C-methyl guanosine nucleotide levels in cellular extracts [10]: 27.0 pmol/million cells
- Major metabolites observed in cellular extracts (% of total radioactivity) [10]: 34.1 % of total radioactivity
- AUC (area under the concentration-time curve) of Compound 7 levels (rat hepatocytes Rs458, 1 μM [^14C]-Compound 1): 3881 pmol * hr/million cells
- 2′-C-methyl guanosine nucleotide levels in cellular extracts (rat hepatocytes Rs458, 10 μM [^14C]-2′-C-methyl guanosine, 0 h): 0 pmol/million cells
- AUC (area under the concentration-time curve) of Compound 7 levels (rat hepatocytes Rs458, 10 μM [^14C]-2′-C-methyl guanosine): 5384 pmol * hr/million cells
- 2′-C-methyl guanosine nucleotide levels in cellular extracts [11]: 23.0 pmol/million cells
- Major metabolites observed in cellular extracts (% of total radioactivity) [11]: 4.42 % of total radioactivity
- 2′-C-methyl guanosine nucleotide levels in cellular extracts [12]: 113 pmol/million cells
- Major metabolites observed in cellular extracts (% of total radioactivity) [12]: 16.2 % of total radioactivity
- 2′-C-methyl guanosine nucleotide levels in cellular extracts [13]: 239 pmol/million cells
- Major metabolites observed in cellular extracts (% of total radioactivity) [13]: 27.0 % of total radioactivity
- 2′-C-methyl guanosine nucleotide levels in cellular extracts [14]: 319 pmol/million cells
- Major metabolites observed in cellular extracts (% of total radioactivity) [14]: 33.9 % of total radioactivity
- 2′-C-methyl guanosine nucleotide levels in cellular extracts (rat hepatocytes Rs458, 10 μM [^14C]-Compound 1, 0 h): 0 pmol/million cells
- AUC (area under the concentration-time curve) of Compound 7 levels (rat hepatocytes Rs458, 10 μM [^14C]-Compound 1): 28123 pmol * hr/million cells
- 2′-C-methyl guanosine nucleotide levels in cellular extracts (rat hepatocytes Rs458, 10 μM [^14C]-Compound 1, 1 h): 534 pmol/million cells
- 2′-C-methyl guanosine nucleotide levels in cellular extracts (rat hepatocytes Rs458, 10 μM [^14C]-Compound 1, 4 h): 1347 pmol/million cells
- 2′-C-methyl guanosine nucleotide levels in cellular extracts (rat hepatocytes Rs458, 10 μM [^14C]-Compound 1, 8 h): 1618 pmol/million cells
- 2′-C-methyl guanosine nucleotide levels in cellular extracts (rat hepatocytes Rs458, 10 μM [^14C]-Compound 1, 24 h): 770 pmol/million cells
- Compound 7 maximal levels (rat hepatocytes, 1 μM [^14C]-Compound 1): 103 pmol/million cells
- Maximum Compound 7 levels (rat hepatocytes, 10 μM [^14C]-2′-C-methyl guanosine, at 24 hours): 249 pmol/million cells
